Laboratory results: patent US20230034660A1, “PEPTIDES THAT ENHANCE NMDA RECEPTOR FUNCTION AND USE THEREOF” (University of Pittsburgh - Of the Commonwealth System of …, priority 2019, published 2023)

Target: T1, GluN2A-ZnT1 interactions (Rattus norvegicus, UniProt Q62720)
T1 construct: endogenous in cells; host or cells: rat embryonic (E16) cortical cultures, 3-4 weeks in vitro
T1 sequence (Q62720 1-507): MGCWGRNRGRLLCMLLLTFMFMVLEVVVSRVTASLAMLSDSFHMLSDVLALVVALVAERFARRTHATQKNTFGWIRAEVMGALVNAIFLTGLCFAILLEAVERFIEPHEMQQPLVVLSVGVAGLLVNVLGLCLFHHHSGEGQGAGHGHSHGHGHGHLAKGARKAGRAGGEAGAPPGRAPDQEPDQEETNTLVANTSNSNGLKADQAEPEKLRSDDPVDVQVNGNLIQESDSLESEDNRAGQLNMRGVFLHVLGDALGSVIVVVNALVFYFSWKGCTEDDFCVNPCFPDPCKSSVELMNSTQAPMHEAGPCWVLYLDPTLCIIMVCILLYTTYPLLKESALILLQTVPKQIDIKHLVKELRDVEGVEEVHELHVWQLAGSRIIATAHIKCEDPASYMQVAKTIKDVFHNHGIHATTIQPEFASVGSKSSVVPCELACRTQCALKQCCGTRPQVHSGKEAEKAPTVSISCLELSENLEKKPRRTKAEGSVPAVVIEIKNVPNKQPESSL
Experiment: Proximity ligation assay (PLA) between GluN2A and ZnT1 in cortical cultures
Type: cell-based
Conditions: 3 μM overnight, cortical cultures 21-25 DIV, compared to scramble controls in sister cultures
Description: FIGS. 3A-3B: N2AZ disrupts ZnT1 binding to the GluN2A subunit of NMDAR. (FIG. 3A) Representative images of rat cortical cultures following proximity ligation assay (PLA) between GluN2A and ZnT1. The PLA immunofluorescently labeled sites of interaction between GluN2A and ZnT1 (white punctae). Additionally, Map2 is immunofluorescently labeled to visualize neuron morphology. Scale bar: 20 μm. Top row denotes PLA assay following overnight exposure to 3 μM scN2AZ, while bottom row denotes PLA assay following 3 μM N2AZ treatment. Insets show the localization of PLA punctae along a Map2 stained dendrite. […] Filled circles indicate the quantification of representative images in FIG. 3A. Error bars indicate mean±SEM. […]
Proximity ligation assays were performed using Duolink PLA kit. […] PLA puncta were counted automatically using Fiji ImageJ (Version 2.0) software using maximum intensity projection of 8 sequential images in the z plane. All images were normalized to the same intensity threshold using the Yen threshold setting prior to automated quantification of punctae.
Next, rat neuronal cortical cultures were utilized to determine whether N2AZ treatment was sufficient to disrupt GluN2A-ZnT1 binding in vitro. First, however, ZnT1 expression in cortical cultures was verified using quantitative PCR. […] Next, GluN2A-ZnT1 interactions in the cultures were quantified using a proximity ligation assay (PLA). […]

With NDSYLRSSL [Peptide N2AZ] the “amount of PLA puncta” value was “significantly reduced”.
